According to patent US11053235B2, “Substituted 1,4-dihydropyrimidines for the treatment of HBV infection or HBV-induced diseases” (Janssen Sciences Ireland Unlimited Company, priority 2018, dated 2021):
pEC50: −log10 of the molar value. Where two headings read alike, the source gives them in different places.

Experiments:
Format in all cases: cell-based
HBV = assay: Anti-viral assay in HepG2.2.15 cells: HBV inhibitory activity (HBV DNA in culture medium by q-PCR); details: HepG2.2.15 cells, 6 days treatment, HBV DNA in culture medium by q-PCR, highest concentration 10 uM, read-out: EC50
Summary of the method: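 HBV DNA released into the medium was measured by q-PCR after 6-day compound exposure of HepG2.2.15 cells (40,000/well, 2% FBS, one mid-course medium change). Eight 3-fold dilutions, highest 10 uM; EC50 derived by curve fitting.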

HepG2.2.15 cells = assay: Cytotoxicity determination in HepG2.2.15 cells (CCK-8); details: 6 days treatment, CCK-8, highest concentration 100 uM
Summary of the method: (§1)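 CC50 derived from CCK-8 absorbance (450 nm, 630 nm reference) after 2.5 h incubation at 37 °C. Before that, HepG2.2.15 cells (5,000/well, 2% FBS) received an 8-point, 3-fold compound series topping at 100 uM for 6 days, with one mid-treatment medium change.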

[1] = as above; details: human, 6 days treatment, CCK-8, highest concentration 100 uM
Summary of the method: as §1

[2] = Hepatitis B virus, HepG2.2.15, 144 h

Compound | pEC50 (HBV) | CC50 (HepG2.2.15 cells) [µM] | pEC50 (HBV; [2]) | CC50 at 6 days [1] [µM]
CCOC(=O)C1=C(C2CC=C(c3nc(C(=O)O)co3)CC2)NC(c2nccs2)=NC1c1ccc(F)c(F)c1Cl (single isomer, unassigned) [Compound I-13-D, 2-(4-(6-(2-chloro-3,4-difluorophenyl)-5-(ethoxycarbonyl)-2-(thiazol-2-yl)-3,6-dihydropyrimidin-4-yl)cyclohex-1-en-1-yl)oxazole-4-carboxylic Acid] | 8.49 | 6.09 |  | 
COC(=O)C1=C(C2CCN(c3ncc(OC)c(C(=O)O)n3)CC2)NC(c2nccs2)=NC1c1ccc(F)c(F)c1C (single isomer, unassigned) [II-95-B, 2-(4-(6-(3,4-Difluoro-2-methylphenyl)-5-(methoxycarbonyl)-2-(thiazol-2-yl)-3,6-dihydropyrimidin-4-yl)piperidin-1-yl)-5-methoxypyrimidine-4-carboxylic Acid] |  |  | 8.07 | 25.8
CCOC(=O)C1=C(C2CCN(c3ncc(OCC)c(C(=O)O)n3)CC2)NC(c2nccs2)=NC1c1ccc(F)c(F)c1Cl (single isomer, unassigned) [II-96-B, 2-(4-(6-(2-chloro-3,4-difluorophenyl)-5-(ethoxycarbonyl)-2-(thiazol-2-yl)-3,6-dihydropyrimidin-4-yl)piperidin-1-yl)-5-ethoxypyrimidine-4-carboxylic Acid] |  |  | 8.29 | 16.3
CCOC(=O)C1=C(C2CCN(c3ncc(N(C)C)c(C(=O)O)n3)CC2)NC(c2nccs2)=NC1c1cccc(F)c1Br (single isomer, unassigned) [II-97-B, 2-(4-(6-(2-Bromo-3-fluorophenyl)-5-(ethoxycarbonyl)-2-(thiazol-2-yl)-3,6-dihydropyrimidin-4-yl)piperidin-1-yl)-5-(dimethylamino)pyrimidine-4-carboxylic Acid] |  |  | 7.85 | 27.6
COC(=O)C1=C(C2CCN(c3ncc(C)c(C(=O)O)n3)CC2)NC(c2nccs2)=NC1c1cccc(F)c1Br (single isomer, unassigned) [II-98-B, 2-(4-(6-(2-Bromo-3-fluorophenyl)-5-(methoxycarbonyl)-2-(thiazol-2-yl)-3,6-dihydropyrimidin-4-yl)piperidin-1-yl)-5-methylpyrimidine-4-carboxylic Acid] |  |  | 7.70 | 21.4
COC(=O)C1=C(C2CCN(c3ncc(C)c(C(=O)O)n3)CC2)NC(c2nccs2)=NC1c1ccc(F)cc1Br (single isomer, unassigned) [II-99-B, 2-(4-(6-(2-Bromo-4-fluorophenyl)-5-(methoxycarbonyl)-2-(thiazol-2-yl)-3,6-dihydropyrimidin-4-yl)piperidin-1-yl)-5-methylpyrimidine-4-carboxylic Acid] |  |  | 8.14 | 20.7
CCOC(=O)C1=C(C2CCN(c3ncc(N(C)C)c(C(=O)O)n3)CC2)NC(c2nccs2)=NC1c1ccc(F)cc1Br (single isomer, unassigned) [II-100-B, 2-(4-(6-(2-bromo-4-fluorophenyl)-5-(ethoxycarbonyl)-2-(thiazol-2-yl)-3,6-dihydropyrimidin-4-yl)piperidin-1-yl)-5-(dimethylamino)pyrimidine-4-carboxylic Acid] |  |  | 7.66 | 24.5
COC(=O)C1=C(C2CCN(c3ccc(CCC(=O)O)cn3)CC2)NC(c2nccs2)=NC1c1ccc(F)cc1Cl (single isomer, unassigned) [II-101-B, 3-(6-(4-(6-(2-Chloro-4-fluorophenyl)-5-(methoxycarbonyl)-2-(thiazol-2-yl)-3,6-dihydropyrimidin-4-yl)piperidin-1-yl)pyridin-3-yl)propanoic Acid] |  |  | > 8.34 | 16.6
CCOC(=O)Cc1ccnc(N2CCC(C3=C(C(=O)OC)C(c4ccc(F)cc4Cl)N=C(c4nccs4)N3)CC2)n1 (single isomer, unassigned) [XI-13-S, Methyl 4-(2-chloro-4-fluorophenyl)-6-(1-(4-(2-ethoxy-2-oxoethyl)pyrimidin-2-yl)piperidin-4-yl)-2-(thiazol-2-yl)-1,4-dihydropyrimidine-5-carboxylate] |  |  | 6.82 | > 100
CCOC(=O)C1=C(C2CCN(c3nc(C(=O)OCC)co3)C2)NC(c2nccs2)=NC1c1ccc(F)c(F)c1Cl (single isomer, unassigned) [XI-85-M, Ethyl 2-(3-(6-(2-chloro-3,4-difluorophenyl)-5-(ethoxycarbonyl)-2-(thiazol-2-yl)-3,6-dihydropyrimidin-4-yl)pyrrolidin-1-yl)oxazole-4-carboxylate] |  |  | 6.11 | 11.6
CCOC(=O)C1=C(C2CCC(c3cnn(C(C)CC(=O)O)c3)CC2)NC(c2nccs2)=NC1c1ccc(F)c(F)c1Cl (stereo not shown) [Compound I-31, 3-(4-(4-(6-(2-Chloro-3,4-difluorophenyl)-5-(ethoxycarbonyl)-2-(thiazol-2-yl)-3,6-dihydropyrimidin-4-yl)cyclohexyl)-1H-pyrazol-1-yl)butanoic Acid] |  |  | 7.23 | 3.78
CCOC(=O)C1=C(C2CCC(c3cnn(C4CC(C(=O)O)C4)c3)CC2)NC(c2nccs2)=NC1c1ccc(F)c(F)c1Cl (stereo not shown) [Compound I-34, 3-(4-(4-(6-(2-Chloro-3,4-difluorophenyl)-5-(ethoxycarbonyl)-2-(thiazol-2-yl)-3,6-dihydropyrimidin-4-yl)cyclohexyl)-1H-pyrazol-1-yl)cyclobutanecarboxylic acid] |  |  | 7.26 | 2.79
CCOC(=O)C1=C([C@H]2CC[C@H](c3nc(C(=O)O)no3)CC2)NC(c2nccs2)=NC1c1ccc(F)c(F)c1Cl (stereo partly drawn) [Compound I-45, (trans)-5-(-4-(6-(2-Chloro-3,4-difluorophenyl)-5-(ethoxycarbonyl)-2-(thiazol-2-yl)-3,6-dihydropyrimidin-4-yl)cyclohexyl)-1,2,4-oxadiazole-3-carboxylic Acid] |  |  | 7.15 | 16.8
CCOC(=O)C1=C(C2CCN(c3ncc(C(=O)O)cn3)C(C)C2)NC(c2nccs2)=NC1c1ccc(F)c(F)c1Cl (stereo not shown) [II-34-F, 2-(4-(6-(2-chloro-3,4-difluorophenyl)-5-(ethoxycarbonyl)-2-(thiazol-2-yl)-3,6-dihydropyrimidin-4-yl)-2-methylpiperidin-1-yl)pyrimidine-5-carboxylic acid] |  |  | > 8.34 | 7.96
